In ChEMBL document CHEMBL4265949, “Design, synthesis and biological evaluation of 2-substituted 3-hydroxy-6-methyl-4H-pyran-4-one derivatives as Pseudomonas aeruginosa biofilm inhibitors” (Eur J Med Chem, 2018):
Calls of active or inactive are those of the source. No cut-off for these calls is given here.

Key:
Pseudomonas aeruginosa [1] = assay: Antibacterial activity against Pseudomonas aeruginosa PAO1 recorded every 10 mins for 15 hrs by broth micro dilution method; type: functional
Pseudomonas aeruginosa [2] = assay: Inhibition of biofilm formation of Pseudomonas aeruginosa PAO1 at 20 uM after 24 hrs by crystal violet staining based assay relative to control; type: functional; settings: PAO1, 24 h
[3] = molecular target: Elastase (Pseudomonas aeruginosa (strain ATCC 15692 / PAO1 / 1C / PRS 101 / LMG12228)) (UniProt P14756); assay: Inhibition of Pseudomonas aeruginosa PAO1 GFP-fused quorum sensing lasB up to 40 uM measured every 15 mins up to 12 hrs by GFP reporter gene assay
Pseudomonas aeruginosa [4] = assay: Inhibition of biofilm formation of Pseudomonas aeruginosa PAO1 at 2.5 uM after 24 hrs by crystal violet staining based assay relative to control; type: functional; settings: PAO1, 24 h
[5] = molecular target: T1, Anthranilate--CoA ligase (Pseudomonas aeruginosa (strain ATCC 15692 / DSM 22644 / CIP 104116 /JCM 14847 / LMG 12228 / 1C / PRS 101 / PAO1)) (UniProt Q9I4X3); assay: Inhibition of Pseudomonas aeruginosa PAO1 GFP-fused quorum sensing pqsA assessed as decrease in pyocyanin production at 40 uM
T1 sequence (whole entry): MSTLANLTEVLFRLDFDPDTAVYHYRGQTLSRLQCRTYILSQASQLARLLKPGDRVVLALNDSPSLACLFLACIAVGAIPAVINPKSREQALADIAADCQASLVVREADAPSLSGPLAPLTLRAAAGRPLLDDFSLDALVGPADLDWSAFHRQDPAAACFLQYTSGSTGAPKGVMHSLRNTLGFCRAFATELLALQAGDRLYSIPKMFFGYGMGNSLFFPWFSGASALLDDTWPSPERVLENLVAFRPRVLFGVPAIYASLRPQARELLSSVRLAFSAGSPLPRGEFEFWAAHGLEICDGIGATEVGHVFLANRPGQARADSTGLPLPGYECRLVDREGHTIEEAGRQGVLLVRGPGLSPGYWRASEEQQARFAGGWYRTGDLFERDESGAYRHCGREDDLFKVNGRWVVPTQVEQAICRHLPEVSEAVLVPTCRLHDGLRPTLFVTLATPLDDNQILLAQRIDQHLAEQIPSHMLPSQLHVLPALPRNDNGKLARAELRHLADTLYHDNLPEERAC

Pseudomonas aeruginosa [6] = assay: Inhibition of biofilm formation of Pseudomonas aeruginosa PAO1 after 24 hrs by confocal laser scanning microscopy; type: functional, organism-based
RAW264.7 [7] = assay: Cytotoxicity against mouse RAW264.7 cells assessed as decrease in cell viability at 50 uM after 24 hrs by MTT assay; type: cell-based; settings: raw264.7, 24 h
[8] = molecular target: T1, Anthranilate--CoA ligase (Pseudomonas aeruginosa (strain ATCC 15692 / DSM 22644 / CIP 104116 /JCM 14847 / LMG 12228 / 1C / PRS 101 / PAO1)); assay: Inhibition of Pseudomonas aeruginosa PAO1 GFP-fused quorum sensing pqsA assessed as decrease in pyocyanin production
[9] = molecular target: 3-(3-hydroxydecanoyloxy)decanoate synthase (Pseudomonas aeruginosa (strain ATCC 15692 / PAO1 / 1C / PRS 101 / LMG12228)) (UniProt Q51559); assay: Inhibition of Pseudomonas aeruginosa PAO1 GFP-fused quorum sensing rhlA up to 40 uM measured every 15 mins up to 12 hrs by GFP reporter gene assay
[10] = molecular target: Elastase (Pseudomonas aeruginosa (strain ATCC 15692 / PAO1 / 1C / PRS 101 / LMG12228)) (UniProt P14756); assay: Inhibition of Pseudomonas aeruginosa PAO1 GFP-fused quorum sensing lasB assessed as decrease in elastase activity up to 40 uM incubated for 24 hrs recorded every 10 mins for 3 hrs
[11] = molecular target: T1, Anthranilate--CoA ligase (Pseudomonas aeruginosa (strain ATCC 15692 / DSM 22644 / CIP 104116 /JCM 14847 / LMG 12228 / 1C / PRS 101 / PAO1)); assay: Inhibition of Pseudomonas aeruginosa PAO1 GFP-fused quorum sensing pqsA measured every 15 mins up to 12 hrs by GFP reporter gene assay
[12] = molecular target: 3-(3-hydroxydecanoyloxy)decanoate synthase (Pseudomonas aeruginosa (strain ATCC 15692 / PAO1 / 1C / PRS 101 / LMG12228)) (UniProt Q51559); assay: Inhibition of Pseudomonas aeruginosa PAO1 GFP-fused quorum sensing rhlA assessed as decrease in rhamnolipid lipid levels up to 40 uM measured after 30 mins
RAW264.7 [13] = assay: Cytotoxicity against mouse RAW264.7 cells assessed as decrease in cell viability at <= 2.5 uM after 24 hrs by MTT assay; type: cell-based; settings: raw264.7, 24 h
[14] = Effect on GFP (unknown origin) protein expression in Pseudomonas aeruginosa PAO1 up to 40 uM after 12 hrs by GFP reporter gene assay; settings: unidentified
Pseudomonas aeruginosa [15] = assay: Antibacterial activity against Pseudomonas aeruginosa PAO1 up to 40 uM after 13 hrs by broth micro dilution method; type: functional, organism-based
Pseudomonas aeruginosa [16] = assay: Inhibition of biofilm formation of Pseudomonas aeruginosa PAO1 after 24 hrs by crystal violet staining based assay; type: functional, organism-based

Chain of Elastase (Pseudomonas aeruginosa (strain ATCC 15692 / PAO1 / 1C / PRS 101 / LMG12228)) (P14756 198-498 limits assumed): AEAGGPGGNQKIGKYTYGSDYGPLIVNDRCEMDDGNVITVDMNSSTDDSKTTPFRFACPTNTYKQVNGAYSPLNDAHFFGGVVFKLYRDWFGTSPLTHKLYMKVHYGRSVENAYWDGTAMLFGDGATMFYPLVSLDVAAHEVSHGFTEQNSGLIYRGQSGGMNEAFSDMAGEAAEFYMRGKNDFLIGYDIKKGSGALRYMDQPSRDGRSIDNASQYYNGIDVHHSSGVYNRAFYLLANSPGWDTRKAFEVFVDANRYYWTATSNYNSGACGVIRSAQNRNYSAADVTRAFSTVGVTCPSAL

Row | SMILES | MIC (Pseudomonas aeruginosa [1]) [µM] | inhibition at 20 µM (Pseudomonas aeruginosa [2]) [%] | also measured
1 | Cc1cc(=O)c(O)c(C(O)c2ccc(C#CC3CCCCC3)cc2)o1 (stereo unspecified) | > 512 | 36.9 | 
2 | Cc1cc(=O)c(O)c(C(O)c2cccc(F)c2)o1 (stereo unspecified) | > 512 | 12.3 | 
3 | CCCCCC(O)c1oc(C)cc(=O)c1O (stereo unspecified) | > 512 | 44.6 | 
4 | Cc1cc(=O)c(O)c(Cc2ccc(C(F)(F)F)cc2)o1 | > 512 | 32.8 | 
5 | Cc1cc(=O)c(O)c(C(O)c2ccc(CCc3ccccc3)cc2)o1 (stereo unspecified) | > 512 | 28.7 | 
6 | Cc1cc(=O)c(O)c(C(O)c2ccccc2F)o1 (stereo unspecified) | > 512 | 5.34 | 
7 | Cc1cc(=O)c(O)c(C(O)c2ccc(OCc3ccccc3)cc2)o1 (stereo unspecified) | > 512 | 22 | 
8 | Cc1cc(=O)c(O)c(C(O)c2ccc(-c3ccc([N+](=O)[O-])cc3)cc2)o1 (stereo unspecified) | > 512 | 48.5 | 
9 | Cc1cc(=O)c(O)c(C(O)c2ccc([N+](=O)[O-])cc2)o1 (stereo unspecified) | > 512 | 51 | inhibition [3]: inactive; inhibition at 2.5 µM (Pseudomonas aeruginosa [4]): 30%; inhibition [5]: 60%; inhibition (Pseudomonas aeruginosa [6]): Dose-dependent effect; Activity (RAW264.7 [7]): Toxic; inhibition [8]: Dose-dependent effect; inhibition [9]: inactive; inhibition [10]: inactive; inhibition [11]: Dose-dependent effect; inhibition [12]: inactive; Activity (RAW264.7 [13]): Non-Toxic; Activity [14]: Non-Toxic; Activity (Pseudomonas aeruginosa [15]): inactive; inhibition (Pseudomonas aeruginosa [16]): Dose-dependent effect
10 | Cc1cc(=O)c(O)c(C(O)c2ccc(C#Cc3ccc(C(F)(F)F)cc3)cc2)o1 (stereo unspecified) | > 512 | 24.9 | 
11 | Cc1cc(=O)c(O)c(C(O)c2ccc(C#Cc3cccc(F)c3)cc2)o1 (stereo unspecified) | > 512 | 31.5 | 
12 | Cc1cc(=O)c(O)c(C(O)c2ccc(C#Cc3ccccc3)cc2)o1 (stereo unspecified) | > 512 | 30.2 | 
13 | CCCCCCCC(O)c1oc(C)cc(=O)c1O (stereo unspecified) | > 512 | 15.8 | 
14 | CCCCC(O)c1oc(C)cc(=O)c1O (stereo unspecified) | > 512 | 22 | 
15 | Cc1cc(=O)c(O)c(C(O)c2ccc(Cc3ccccc3)cc2)o1 (stereo unspecified) | > 512 | 20.6 | 
16 | Cc1cc(=O)c(O)c(Cc2ccccc2)o1 | > 512 | 27.4 | 

Row | SMILES | MIC (Pseudomonas aeruginosa [1]) [µM] | inhibition at 20 µM (Pseudomonas aeruginosa [2]) [%] | also measured
17 | Cc1cc(=O)c(O)c(C(O)c2ccc(C#Cc3ccc(F)cc3)cc2)o1 (stereo unspecified) | > 512 | 39.1 | 
18 | CCCC(O)c1oc(C)cc(=O)c1O (stereo unspecified) | > 512 | 33.2 | 
19 | Cc1cc(=O)c(O)c(Cc2ccc(Cl)cc2)o1 | > 512 | 34.2 | 
20 | CSCCC(O)c1oc(C)cc(=O)c1O (stereo unspecified) | > 512 | 25.9 | 
21 | Cc1cc(=O)c(O)c(C(O)c2ccc(OCc3ccc([N+](=O)[O-])cc3)cc2)o1 (stereo unspecified) | > 512 | 22 | 
22 | Cc1cc(=O)c(O)c(C(O)c2cccc(Br)c2)o1 (stereo unspecified) | > 512 | 5.67 | 
23 | Cc1cc(=O)c(O)c(C(O)c2ccccc2Br)o1 (stereo unspecified) | > 512 | 9.04 | 
24 | Cc1cc(=O)c(O)c(C(O)c2ccc(C#Cc3ccccn3)cc2)o1 (stereo unspecified) | > 512 | 37.7 | 
25 | CCCCCCC(O)c1oc(C)cc(=O)c1O (stereo unspecified) | > 512 | 41.5 | 
26 | Cc1cc(=O)c(O)c(Cc2ccc(F)cc2)o1 | > 512 | 30.5 | 
27 | Cc1cc(=O)c(O)c(C(O)c2ccc(-c3ccccc3)cc2)o1 (stereo unspecified) | > 512 | 3.26 | 
28 | Cc1cc(=O)c(O)c(C(O)c2ccc(-n3ccnc3)cc2)o1 (stereo unspecified) | > 512 | 17.3 | 
29 | Cc1cc(=O)c(O)c(C(O)c2ccc(/C=C/c3ccccc3)cc2)o1 (stereo unspecified) | > 512 | 35.1 | 
30 | COc1ccc(C#Cc2ccc(C(O)c3oc(C)cc(=O)c3O)cc2)cc1 (stereo unspecified) | > 512 | 26.3 | 
31 | Cc1cc(=O)c(O)c(C(O)c2ccc(S(F)(F)(F)(F)F)cc2)o1 (stereo unspecified) | > 512 | 31.7 | 
